ChEMBL document CHEMBL4619763 (J Nat Prod, 2020)
The source made the active and inactive calls. The calls are words filed in the database; no cut-off is given here.

Assays:
Rattus norvegicus [1] = experiment: Diuretic activity in spontaneous hypertensive Wistar rat assessed as increase in urinary chloride excretion at 0.1 mg/kg, po administered via gavage for 7 days; type: functional, organism-based
Rattus norvegicus [2] = experiment: Diuretic activity in normotensive Wistar rat assessed as decrease in urinary calcium excretion at 0.1 mg/kg, po administered via gavage for 7 days; type: functional, organism-based
Rattus norvegicus [3] = experiment: Diuretic activity in normotensive Wistar rat assessed as urine conductivity at 0.1 mg/kg, po administered via gavage after 8 hrs in presence of atropine (reference value: 19.54 +/- 0.98 mS/cm); type: functional
Rattus norvegicus [4] = experiment: Diuretic activity in normotensive Wistar rat assessed as urinary potassium excretion at 0.1 mg/kg, po administered via gavage after 8 hrs in presence of indomethacin (reference value: 22.39 to 24.21 mmol/L); type: ADME, organism-based; settings: in vivo
Rattus norvegicus [5] = experiment: Diuretic activity in normotensive Wistar rat assessed as increase in urine volume at 0.1 mg/kg, po administered via gavage for 7 days; type: functional, organism-based
Rattus norvegicus [6] = experiment: Diuretic activity in normotensive Wistar rat assessed as urinary potassium excretion at 0.1 mg/kg, po administered via gavage after 8 hrs in presence of atropine (reference value: 22.39 to 24.21 mmol/L); type: ADME, organism-based; settings: in vivo
Rattus norvegicus [7] = experiment: Diuretic activity in normotensive Wistar rat assessed as urinary calcium excretion at 1 mg/kg, ip […] after 8 hrs (reference value: 5.28 +/- 0.09 mg/dl); type: functional
Rattus norvegicus [8] = experiment: Diuretic activity in normotensive Wistar rat assessed as urinary sodium excretion at 0.1 mg/kg, po administered via gavage after 8 hrs in presence of atropine (reference value: 61.82 to 80.81 mmol/L); type: functional
[9] = Toxicity in spontaneous hypertensive Wistar rat assessed as changes in plasma ALT level at 0.1 mg/kg, po administered for 7 days; type: organism-based; settings: in vivo, 168 h
[10] = Anti-urolithic activity in synthetic urine assessed as reduction in CaOx crystal formation at 0.1 mg/mL in presence of sodium oxalate after 60 mins by Neubauer counting chamber method relative to control; type: functional; design: scale not given: the % may be the effect or the level left
Rattus norvegicus [11] = experiment: Diuretic activity in normotensive Wistar rat assessed as urine pH at 0.1 mg/kg, po administered via gavage after 8 hrs in presence of L-NAME (reference value: 6.14 to 6.21); type: functional
[12] = Toxicity in normotensive Wistar rat assessed as changes in plasma chloride level at 0.1 mg/kg, po administered for 7 days; type: organism-based; settings: in vivo, 168 h
[13] = Anti-urolithic activity in synthetic urine assessed as reduction in CaOx crystal formation at 0.01 mg/mL in presence of sodium oxalate after 60 mins by Neubauer counting chamber method relative to control; type: functional; design: scale not given: the % may be the effect or the level left
[14] = Toxicity in normotensive Wistar rat assessed as changes in plasma potassium level at 0.1 mg/kg, po administered for 7 days; type: organism-based; settings: in vivo, 168 h
Rattus norvegicus [15] = experiment: Diuretic activity in normotensive Wistar rat assessed as urinary sodium excretion at 0.1 mg/kg, po administered via gavage after 8 hrs in presence of amiloride (reference value: 61.82 to 80.81 mmol/L); type: functional
Rattus norvegicus [16] = experiment: Diuretic activity in normotensive Wistar rat assessed as urinary chloride excretion at 1 mg/kg, po administered via gavage after 8 hrs (reference value: 135.10 to 143.70 mmol/L); type: functional
Rattus norvegicus [17] = experiment: Diuretic activity in normotensive Wistar rat assessed as urinary potassium excretion at 0.1 mg/kg, ip […] after 8 hrs (reference value: 22.33 +/- 2.81 mmol/L); type: ADME, organism-based; settings: in vivo
Rattus norvegicus [18] = experiment: Diuretic activity in normotensive Wistar rat assessed as urinary sodium excretion at 0.1 mg/kg, po administered via gavage after 8 hrs in presence of furosemide (reference value: 61.82 to 80.81 mmol/L); type: functional
Rattus norvegicus [19] = experiment: Diuretic activity in normotensive Wistar rat assessed as urinary chloride excretion at 0.1 mg/kg, po administered via gavage after 8 hrs in presence of indomethacin (reference value: 135.10 to 143.70 mmol/L); type: functional
[20] = Antioxidant activity assessed as DPPH radical scavenging activity at 100 to 1000 ug/ml after 5 mins; type: functional
Rattus norvegicus [21] = experiment: Diuretic activity in normotensive Wistar rat assessed as urinary potassium excretion at 0.1 mg/kg, po administered via gavage after 8 hrs (reference value: 22.39 to 24.21 mmol/L); type: ADME, organism-based; settings: in vivo
Rattus norvegicus [22] = experiment: Diuretic activity in normotensive Wistar rat assessed as urinary potassium excretion at 0.01 mg/kg, ip […] after 8 hrs (reference value: 22.33 +/- 2.81 mmol/L); type: ADME, organism-based; settings: in vivo
Rattus norvegicus [23] = experiment: Diuretic activity in normotensive Wistar rat assessed as increase in urinary sodium excretion at 0.1 mg/kg, po administered via gavage for 7 days; type: functional, organism-based
Rattus norvegicus [24] = experiment: Diuretic activity in normotensive Wistar rat assessed as urinary chloride excretion at 0.1 mg/kg, po administered via gavage after 8 hrs (reference value: 135.10 to 143.70 mmol/L); type: functional
[25] = Toxicity in normotensive Wistar rat assessed as changes in plasma uric acid level at 0.1 mg/kg, po administered for 7 days; type: organism-based; settings: in vivo, 168 h
Rattus norvegicus [26] = experiment: Diuretic activity in normotensive Wistar rat assessed as urinary sodium excretion at 0.1 mg/kg, po administered via gavage after 8 hrs in presence of hydrochlorothiazide (reference value: 61.82 to 80.81 mmol/L); type: functional
Rattus norvegicus [27] = experiment: Diuretic activity in normotensive Wistar rat assessed as urinary calcium excretion at 0.1 mg/kg, po administered via gavage after 8 hrs in presence of indomethacin (reference value: 5.93 to 6.87 mg/dl); type: functional
Rattus norvegicus [28] = experiment: Diuretic activity in normotensive Wistar rat assessed as urine pH at 1 mg/kg, po administered via gavage after 8 hrs (reference value: 6.14 to 6.21); type: functional
Rattus norvegicus [29] = experiment: Diuretic activity in normotensive Wistar rat assessed as urinary chloride excretion at 0.1 mg/kg, ip […] after 8 hrs (reference value: 103.30 +/- 10.25 mmol/L); type: functional
Rattus norvegicus [30] = experiment: Diuretic activity in normotensive Wistar rat assessed as urinary potassium excretion at 0.1 mg/kg, po administered via gavage after 8 hrs in presence of hydrochlorothiazide (reference value: 22.39 to 24.21 mmol/L); type: ADME, organism-based; settings: in vivo
[31] = Toxicity in spontaneous hypertensive Wistar rat assessed as changes in plasma potassium level at 0.1 mg/kg, po administered for 7 days; type: organism-based; settings: in vivo, 168 h
Rattus norvegicus [32] = experiment: Diuretic activity in normotensive Wistar rat assessed as urinary chloride excretion at 0.1 mg/kg, po administered via gavage after 8 hrs in presence of L-NAME (reference value: 135.10 to 143.70 mmol/L); type: functional
[33] = Toxicity in spontaneous hypertensive Wistar rat assessed as changes in plasma calcium level at 0.1 mg/kg, po administered for 7 days; type: organism-based; settings: in vivo, 168 h
Rattus norvegicus [34] = experiment: Diuretic activity in normotensive Wistar rat assessed as increase in urine volume excretion at 1 mg/kg, ip a after 6 hr; type: functional, organism-based
Rattus norvegicus [35] = experiment: Renal protective activity in spontaneous hypertensive Wistar rat assessed as reduction in hypertension-induced glomerular size at 0.1 mg/kg, po administered via gavage for 7 days by hematoxylin and eosin staining based microscopic analysis; type: functional, organism-based
Rattus norvegicus [36] = experiment: Diuretic activity in normotensive Wistar rat assessed as urinary chloride excretion at 0.1 mg/kg, po administered via gavage after 8 hrs in presence of atropine (reference value: 135.10 to 143.70 mmol/L); type: functional

For `C[C@@H]1O[C@@H](Oc2c(-c3ccc(O)cc3)oc3cc(O)cc(O)c3c2=O)[C@H](O)[C@H](O)[C@H]1O` [AFZELIN], the Activity (Rattus norvegicus [1]) was “Active”, the Activity (Rattus norvegicus [2]) was “Active” and the Activity (Rattus norvegicus [3]) was 19.09 mS/cm. The Activity (Rattus norvegicus [4]) was 17.87 mmol/L, the Activity (Rattus norvegicus [5]) was “Active” and the Activity (Rattus norvegicus [6]) was 16.83 mmol/L. For the same compound, the Activity (Rattus norvegicus [7]) was 5.46 mg/dL, the Activity (Rattus norvegicus [8]) was 57.23 mmol/L and the Activity [9] was “Non-Toxic”. For the same compound, the Activity [10] was 48.88%, the pH (Rattus norvegicus [11]) was 6.43 and the Activity [12] was “Non-Toxic”. The Activity [13] was 57.47%, the Activity [14] was “Non-Toxic” and the Activity (Rattus norvegicus [15]) was 79.24 mmol/L. For the same compound, the Activity (Rattus norvegicus [16]) was 165.2 mmol/L, the Activity (Rattus norvegicus [17]) was 12.79 mmol/L and the Activity (Rattus norvegicus [18]) was 75.54 mmol/L. For the same compound, the Activity (Rattus norvegicus [19]) was 284.5 mmol/L, the Activity [20] was “Active” and the Activity (Rattus norvegicus [21]) was 24.2 to 24.7 mmol/L. The Activity (Rattus norvegicus [22]) was 15.61 mmol/L, the Activity (Rattus norvegicus [23]) was “Active” and the Activity (Rattus norvegicus [24]) was 186.6 to 231.3 mmol/L. For the same compound, the Activity [25] was “Non-Toxic”, the Activity (Rattus norvegicus [26]) was 113.3 mmol/L and the Activity (Rattus norvegicus [27]) was 4.82 mg/dL. For the same compound, the pH (Rattus norvegicus [28]) was 6.29, the Activity (Rattus norvegicus [29]) was 78.12 mmol/L and the Activity (Rattus norvegicus [30]) was 33.28 mmol/L. For the same compound, the Activity [31] was “Non-Toxic”, the Activity (Rattus norvegicus [32]) was 336.1 mmol/L and the Activity [33] was “Non-Toxic”. The Activity (Rattus norvegicus [34]) was “Active”, the Activity (Rattus norvegicus [35]) was “Active” and the Activity (Rattus norvegicus [36]) was 231.8 mmol/L.
